# In US20260184708A1, “PYRIDAZINONES AND METHODS OF USE THEREOF” (GFB (ABC), LLC, priority 2017, published 2026):
# Target: T1, TRPC5 (Homo sapiens, UniProt Q9UL62)
# T1 construct: expressed in transfected cells; host or cells: HEK 293
# T1 sequence (Q9UL62 1-973): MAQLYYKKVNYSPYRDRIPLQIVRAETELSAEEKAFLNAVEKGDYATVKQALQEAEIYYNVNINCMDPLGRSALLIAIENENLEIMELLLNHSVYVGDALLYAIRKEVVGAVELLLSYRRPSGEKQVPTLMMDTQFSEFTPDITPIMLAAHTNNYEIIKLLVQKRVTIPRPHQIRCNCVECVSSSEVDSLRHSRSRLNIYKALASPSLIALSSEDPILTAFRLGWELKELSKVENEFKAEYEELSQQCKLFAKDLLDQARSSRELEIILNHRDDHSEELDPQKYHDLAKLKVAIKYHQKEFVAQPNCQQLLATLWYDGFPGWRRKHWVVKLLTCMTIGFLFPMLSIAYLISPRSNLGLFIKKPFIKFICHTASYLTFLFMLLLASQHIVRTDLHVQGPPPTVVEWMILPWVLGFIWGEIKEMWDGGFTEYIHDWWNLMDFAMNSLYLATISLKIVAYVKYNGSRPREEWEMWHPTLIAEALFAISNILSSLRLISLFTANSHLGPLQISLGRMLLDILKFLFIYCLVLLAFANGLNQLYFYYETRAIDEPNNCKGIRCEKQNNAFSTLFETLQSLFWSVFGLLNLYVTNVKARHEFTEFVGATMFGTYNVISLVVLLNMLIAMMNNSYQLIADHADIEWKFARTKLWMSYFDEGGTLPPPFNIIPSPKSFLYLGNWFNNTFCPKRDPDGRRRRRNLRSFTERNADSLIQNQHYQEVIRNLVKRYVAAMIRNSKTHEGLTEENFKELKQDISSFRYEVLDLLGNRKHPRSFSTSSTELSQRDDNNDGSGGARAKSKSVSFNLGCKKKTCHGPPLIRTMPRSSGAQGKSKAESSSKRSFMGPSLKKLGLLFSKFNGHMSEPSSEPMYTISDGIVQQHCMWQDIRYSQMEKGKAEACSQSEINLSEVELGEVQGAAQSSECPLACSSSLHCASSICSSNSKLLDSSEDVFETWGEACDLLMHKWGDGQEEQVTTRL
# Assay: TRPC5 Fluorescence Assay - FLIPR format (HEK-TREx hTRPC5, Riluzole stimulation)
# Format: cell-based
# Details: Table 10, read-out: TRPCS-FLIPR IC50
# Protocol: • Cell line: ICLN-001633 • Base Cell: HEK • Channel: TRPC5 • Species: Human • Thaw ID: multiple • Passage: multiple
# FLIPR Assay Buffer (Earls Balanced Salt Solution (EBSS) was prepared as follows:
# Test Agent Preparation: Compounds were made up to, or supplied as, a 10 mM stock solution generally using DMSO as the vehicle. 10-point dose response curves were generated using the Echo-550 acoustic dispenser. Compound source plates were made by serially diluting compound stocks to create 10 mM, 1 mM, and 0.1 mM solutions in DMSO into Echo certified LDV plates. The Echo then serially spotted 100% DMSO stock solutions into source dose response plates to generate a 4-fold dilution scheme. 100% DMSO was added to the spotted dose response plates to bring the final volume to 5 μl. […] of the dose response stock plate was then spotted into pre-incubation and stimulation assay plates. 50 μl of pre-incubation buffer and 100 μl of stimulation buffer was then added to the plates resulting in a final assay test concentration range of 30 μM to 0.0001 μM with a final DMSO concentration of 0.3%.
# Experimental Methods: Cells expressing TRPC5 (HEK-TREx hTRPC5) are plated onto 384 well, black PDL-coated microplates and maintained in TRPC5 growth media the day prior to use for experiments. TRPC5 expression is induced by the application of […] tetracycline at the time of plating. Media is removed from the plates and 10 μl of 4 μM of Fluo-4 AM (mixed with equal volume of Pluronic F-127) in EBSS is added to the cells. Cells are incubated at room temperature, protected from light, for 60-90 minutes. After the incubation period, the dye is removed and replaced with 10 μl of EBSS. Cell, pre-incubation and stimulation plates are loaded onto the FLIPR-II and the assay is initiated. The FLIPR measures a 10 second baseline and then adds 10 μl of 2× compounds (or controls). Changes in fluorescence are monitored for an additional 5 minutes. After the 5 minute pre-incubation, 20 μl of 2× Riluzole (with 1× compound or controls) is added to the cell plate. The final Riluzole stimulation concentration in the assay is 30 μM. After the Riluzole addition, changes in fluorescence are monitored for an additional 5 minutes.
# Test Agent Effect: Test agent modulation of TRPC5 calcium response was determined as follows. After the Riluzole, fluorescence was monitored for a 5 minute period. The maximum relative fluorescene response (minus the control response of 1 μM of the control inhibitor) was captured and exported from the FLIPR. Test agent effect was calculated as % inhibition using the following formula: % inhibition=((RFU Test Agent−Plate Average RFU REF INHIB)/(Plate Average RFU Control−Plate Average RFU REF INHIB))×100
row,SMILES,IC50
1,O=c1[nH]ncc(C2CCc3c(nnn3Cc3ccccc3C(F)(F)F)C2)c1Cl (centres unmarked),10 to 500 µM
2,C[C@H](c1ccc(Cl)cc1C(F)(F)F)n1nnc2c1CCN(c1cn[nH]c(=O)c1Cl)C2,1e-05 to 1 µM
3,O=c1[nH]ncc(N2CCc3c(c(CN4CCOCC4)nn3Cc3ccccc3C(F)F)C2)c1Cl,1e-05 to 1 µM
4,O=C1COCCN1Cc1nn(Cc2ccccc2C(F)F)c2c1CN(c1cn[nH]c(=O)c1Cl)CC2,1e-05 to 1 µM
5,O=c1[nH]ncc(N2Cc3cnc(Oc4ccccc4C(F)(F)F)nc3C2)c1Cl,1e-05 to 1 µM
6,CNC(=O)c1nn([C@@H](C)c2ccccc2C(F)F)c2c1CN(c1cn[nH]c(=O)c1Cl)CC2,1e-05 to 1 µM
7,C[C@@H](c1ccccc1C(F)(F)F)n1nc(C(N)=O)c2c1CCN(c1cn[nH]c(=O)c1Cl)C2,1e-05 to 1 µM
8,COC[C@@H](c1ccccc1C(F)(F)F)n1cnc2c1CCN(c1cn[nH]c(=O)c1Cl)C2,1e-05 to 1 µM
9,C[C@@H](c1ccc(F)cc1C(F)F)n1nc(C(N)=O)c2c1CCN(c1cn[nH]c(=O)c1Cl)C2,1e-05 to 1 µM
10,C[C@H](c1cccnc1CC(F)F)n1nnc2c1CCN(c1cn[nH]c(=O)c1Cl)C2,1e-05 to 1 µM
11,COC[C@H](c1ccc(F)cc1C(F)(F)F)n1cnc2c1CCN(c1cn[nH]c(=O)c1Cl)C2,1e-05 to 1 µM
12,COC[C@@H](c1ccc(F)cc1C(F)(F)F)n1cnc2c1CCN(c1cn[nH]c(=O)c1Cl)C2,1 to 5 µM
13,NC[C@H](c1ccc(F)cc1C(F)(F)F)n1cnc2c1CCN(c1cn[nH]c(=O)c1Cl)C2,5 to 10 µM
14,O=c1[nH]ncc(N2CCc3c(nnn3Cc3ccc(F)cc3Cl)C2)c1Cl,1e-05 to 1 µM
15,C[C@H](c1ccccc1C(F)(F)F)n1[nH]c(=O)c2c1CCN(c1cn[nH]c(=O)c1Cl)C2,1e-05 to 1 µM
16,C[C@@H](c1ccccc1C(F)(F)F)n1[nH]c(=O)c2c1CCN(c1cn[nH]c(=O)c1Cl)C2,1e-05 to 1 µM
17,CN(c1ncc2c(n1)CN(c1cn[nH]c(=O)c1Cl)C2)c1ccccc1Cl,1e-05 to 1 µM
18,CN(c1ccc(F)cc1C(F)(F)F)c1n[nH]c2c1CCN(c1cn[nH]c(=O)c1Cl)C2,1e-05 to 1 µM
19,O=c1[nH]ncc(N2CCc3c(Nc4ccc(F)cc4C(F)(F)F)n[nH]c3C2)c1Cl,1e-05 to 1 µM
20,C[C@H](c1ccc(F)cc1C(F)(F)F)c1n[nH]c2c1CCN(c1cn[nH]c(=O)c1Cl)C2,1e-05 to 1 µM

# The next lines start with the values.
row,IC50,SMILES
1,1e-05 to 1 µM,N#Cc1nn(Cc2ccccc2C(F)(F)F)c2c1CN(c1cn[nH]c(=O)c1Cl)CC2
2,1e-05 to 1 µM,CC(C)C(=O)Nc1nn(Cc2ccccc2C(F)(F)F)c2c1CN(c1cn[nH]c(=O)c1Cl)CC2
3,1e-05 to 1 µM,CC(=O)Nc1nn(Cc2ccccc2C(F)(F)F)c2c1CN(c1cn[nH]c(=O)c1Cl)CC2
4,1 to 5 µM,N[C@@H](c1nn(Cc2ccccc2C(F)(F)F)c2c1CN(c1cn[nH]c(=O)c1Cl)CC2)C(F)(F)F
5,1 to 5 µM,N[C@H](c1nn(Cc2ccccc2C(F)(F)F)c2c1CN(c1cn[nH]c(=O)c1Cl)CC2)C(F)(F)F
6,1e-05 to 1 µM,CS(=O)(=O)c1nn(Cc2ccc(F)cc2C(F)F)c2c1CN(c1cn[nH]c(=O)c1Cl)CC2
7,1 to 5 µM,CCS(=O)(=O)c1nn(Cc2ccc(F)cc2C(F)F)c2c1CN(c1cn[nH]c(=O)c1Cl)CC2
8,1 to 5 µM,Nc1nn(Cc2ccccc2C(F)(F)F)c2c1CN(c1cn[nH]c(=O)c1Cl)CC2
9,1e-05 to 1 µM,C[C@H](c1ccc(F)cc1C(F)(F)F)n1[nH]c(=O)c2c1CCN(c1cn[nH]c(=O)c1Cl)C2
10,1e-05 to 1 µM,C[C@@H](c1ccc(F)cc1C(F)(F)F)n1[nH]c(=O)c2c1CCN(c1cn[nH]c(=O)c1Cl)C2
11,1e-05 to 1 µM,Nc1nn(Cc2ccc(F)cc2C(F)(F)F)c2c1CN(c1cn[nH]c(=O)c1Cl)CC2
12,1e-05 to 1 µM,CS(=O)(=O)c1nn(Cc2ccc(F)cc2C(F)(F)F)c2c1CN(c1cn[nH]c(=O)c1Cl)CC2
